According to patent US20200129531A1, “USE OF WITHANIA SOMNIFERA EXTRACT TO PROTECT AGAINST AIR POLLUTION RELATED DISEASES” (DSM IP Assets B.V., priority 2017, published 2020):

Assays:
IL-6 [1] = test: IL-6 secretion of BEAS-2B cells treated with Diesel Particulate Matter; assay type: cell-based, human; settings: 24 h
Source text: (§1) The human bronchial epithelial cell line BEAS-2B was from ATCC (American Type Culture Collection, Manassas, Va.) and cultured in Bronchial Epithelial cell Growth Medium (BEGM, Lonza, Wakersville, Md.) in CellBIND® surface plastic flasks (Corning Inc., Corning, N.Y.). The adenocarcinomic human alveolar basal epithelial A549 cell line was obtained from ATCC and cultured in Kaighn's Modification of Ham's F-12 Medium (F-12K medium) (Life Technologies, USA), supplemented with 10% FBS (Sigma, Saint-Louis, Mo.). These cells were cultured at 37° C. in a humidified atmosphere containing 5% CO2.
(§2) BEAS-2B cells were seeded in 12-well CellBIND® surface culture plates (Corning Inc.) at 3 to 4×10^5 cells per well. A549 cells were seeded in 12-well plates at 2×10^5 cells per well.
(§3) Diesel Particulate Matter (Standard Reference Material SRM 1650b, National Institute of Standards & Technology, NIST, Gaithersburg, Md.) at 80 mg/ml DMSO (100%) were sonicated for 5 min and thereafter diluted 400 fold in medium. This dilution was twofold further diluted for the assay.
(§4) After 24 h, cells were treated with the diluted Diesel Particulate Matter at 100 μg/ml and in the presence of different concentrations of Withania somnifera extracts, other plant extracts, fractions and compounds as indicated. The final DSMO concentrations were 0.175%.
(§5) Untreated cells or cells treated with 0.175% DMSO were used as controls. After 24 h, cell supernatants were collected.
(§6) The concentrations of IL-6 and IL-8 in the supernatants were determined by Luminex kits (BIO-RAD Laboratories, Hercules, Calif.) and used in the LiquiChip Workstation IS 200 (Qiagen, Hilden, Germany). The data were evaluated with the LiquiChip Analyser software (Qiagen).

IL-6 [2] = test: IL-6 secretion of A549 cells treated with Diesel Particulate Matter; assay type: cell-based, human; settings: for effect on PM-induced IL-6 secretion (in words): A549; for IL-6 / IL-6 % of PM + DMSO: Table 5, A549, 24 h
Source text: as §1, §2, §3, §4, §5, §6

IL-8 = IL-8 secretion of A549 cells treated with Diesel Particulate Matter; assay type: cell-based, human; settings: for effect on IL-8 secretion (in words): A549, PM-induced; for IL-8 / IL-8 % of PM + DMSO: Table 7, A549, 24 h
Source text: as §1, §2, §3, §4, §5, §6

MCP-1 = MCP-1 secretion of A549 cells treated with Diesel Particulate Matter; assay type: cell-based, human; settings: for effect on PM-induced MCP-1 secretion (in words): A549; for MCP-1 / MCP-1 % of PM + DMSO: Table 9, A549, 24 h
Source text: The human bronchial epithelial cell line BEAS-2B was from ATCC (American Type Culture Collection, Manassas, Va.) and cultured in Bronchial Epithelial cell Growth Medium (BEGM, Lonza, Wakersville, Md.) in CellBIND® surface plastic flasks (Corning Inc., Corning, N.Y.). The adenocarcinomic human alveolar basal epithelial A549 cell line was obtained from ATCC and cultured in Kaighn's Modification of Ham's F-12 Medium (F-12K medium) (Life Technologies, USA), supplemented with 10% FBS (Sigma, Saint-Louis, Mo.). These cells were cultured at 37° C. in a humidified atmosphere containing 5% CO2. BEAS-2B cells were seeded in 12-well CellBIND® surface culture plates (Corning Inc.) at 3 to 4×10^5 cells per well. A549 cells were seeded in 12-well plates at 2×10^5 cells per well. […] This dilution was twofold further diluted for the assay. After 24 h, cells were treated with the diluted Diesel Particulate Matter at 100 μg/ml and in the presence of different concentrations of Withania somnifera extracts, other plant extracts, fractions and compounds as indicated. The final DSMO concentrations were 0.175%. Untreated cells or cells treated with 0.175% DMSO were used as controls. After 24 h, cell supernatants were collected.

PGE2 = PGE2 secretion of BEAS-2B cells treated with Diesel Particulate Matter; assay type: cell-based, human; settings: for effect on PGE2 secretion compared to PM with DMSO (in words): PM-treated BEAS-2B; for PGE2 / PGE2 % of PM + DMSO: Table 10, BEAS-2B, 24 h
Source text: as §1, §2, §3, §4, §5
Secreted PGE2 was determined by Enzyme Immuno Assay (EIA) (Cayman Chemicals, Ann Harbor, […].).

Nrf2 = test: Luciferase reporter assay using H411E-ARE8L cells (Nrf2 activation); settings: Conc. final 22.73 μg/ml
Procedure: Luciferase Reporter Assay Using H411E-ARE8L Cells:
The medium for H411E-ARE8L cells was Dulbecco's Modified Eagle Medium (DMEM) high glucose containing heat inactivated 10% fetal bovine Serum (FBS). The media was exchanged every two to three-days. The DMEM assay medium used charcoal treated FBS (DMEMct). The transactivation assay was performed in 96 well plates. The plates were seeded with approximately 40′000 cells per well in 100 μl DMEMct and incubated over night at 37° C. Then the test compounds were diluted in DMEDct and given to the cells as described below. The cells were incubated for at least further 16 h at 37° C. and 5% CO2. Cells were equilibrated to room temperature. Lysis of the cells was done by adding 100 μL lysis solution, Steady-Glo© luciferase buffer according to the manufacturer (Promega) containing 0.5 mM DTT per well and incubated for 10 min at room temperature with gentle shaking. The luminescence was measured within 2 hours after incubation on a luminometer (Mithras, Berthold Technologies).
The negative control were cells in 0.5% DMSO.
All extracts, fractions and pure compounds were tested for concentrations that induce toxicity. Non-toxic concentrations were then selected for treating cells as describes in the methods section.

[3] = Table 3, 10 μg/ml + PM 100 μg/ml
[4] = Table 3, 5 μg/ml + PM 100 μg/ml

In the case of 12-deoxywithastramonolide, the IL-6 (IL-6 [1]; [3]) is reported as 51.9 pg/mL, the “IL-6 % of PM + DMSO” value (IL-6 [1]; [3]) is reported as 207% and the “effect on PM-induced IL-6 secretion (in words)” value (IL-6 [2]) is reported as “decrease”. The IL-6 (IL-6 [2]; 10 μg/ml + PM 100 μg/ml) was 9.5 pg/mL, the “IL-6 % of PM + DMSO” value (IL-6 [2]; 10 μg/ml + PM 100 μg/ml) was 75% and the “effect on IL-8 secretion (in words)” value (IL-8) was “significant inhibition”. The IL-8 (IL-8; 10 μg/ml + PM 100 μg/ml) was 208.3 pg/mL, the “IL-8 % of PM + DMSO” value (IL-8; 10 μg/ml + PM 100 μg/ml) was 69% and the “effect on PM-induced MCP-1 secretion (in words)” value (MCP-1) was “significant decrease”. For the same compound, the MCP-1 (MCP-1; 10 μg/ml + PM 100 μg/ml) was 646.3 pg/mL, the “MCP-1 % of PM + DMSO” value (MCP-1; 10 μg/ml + PM 100 μg/ml) was 74% and the “effect on PGE2 secretion compared to PM with DMSO (in words)” value (PGE2) was “significant decrease”. For the same compound, the PGE2 (PGE2; 10 μg/ml + PM 100 μg/ml) was 28.3 pg/mL, the “PGE2 % of PM + DMSO” value (PGE2; 10 μg/ml + PM 100 μg/ml) was 74% and the “Nrf-2 activity, Average” value (Nrf2) was 33869 relative units of luciferase fluorescence. For the same compound, the “Nrf-2 activity, Normalized data” value (Nrf2; R-sulforaphane set to 1.0, DMSO 0) was 1.1701.

For `CO[C@H]1CC(=O)[C@]2(C)[C@H]3CC[C@]4(C)[C@@H]([C@H](C)[C@H]5CC(C)=C(CO)C(=O)O5)CC[C@H]4[C@@H]3C[C@H]3O[C@]32[C@H]1O` [Quresimine A, quresimine A], the IL-6 (IL-6 [1]; [4]) was 23.5 pg/mL, the “IL-6 % of PM + DMSO” value (IL-6 [1]; [4]) was 94% and the “effect on PM-induced IL-6 secretion (in words)” value (IL-6 [2]) was “decrease”. For the same compound, the IL-6 (IL-6 [2]; 5 μg/ml + PM 100 μg/ml) was 9.5 pg/mL, the “IL-6 % of PM + DMSO” value (IL-6 [2]; 5 μg/ml + PM 100 μg/ml) was 75% and the “effect on IL-8 secretion (in words)” value (IL-8) was “significant inhibition”. The IL-8 (IL-8; 5 μg/ml + PM 100 μg/ml) was 242 pg/mL, the “IL-8 % of PM + DMSO” value (IL-8; 5 μg/ml + PM 100 μg/ml) was 80% and the “effect on PM-induced MCP-1 secretion (in words)” value (MCP-1) was “low, but non-significant decrease”. For the same compound, the MCP-1 (MCP-1; 5 μg/ml + PM 100 μg/ml) was 796.7 pg/mL, the “MCP-1 % of PM + DMSO” value (MCP-1; 5 μg/ml + PM 100 μg/ml) was 92% and the “effect on PGE2 secretion compared to PM with DMSO (in words)” value (PGE2) was “borderline”. For the same compound, the PGE2 (PGE2; 5 μg/ml + PM 100 μg/ml) was 33.2 pg/mL and the “PGE2 % of PM + DMSO” value (PGE2; 5 μg/ml + PM 100 μg/ml) was 87%.
